This is an account of results in patent publication US8450319B2, “Pyrrolopyridazinone compound” (Ube Industries, Ltd., priority 2006, dated 2013).

Where only a bound is given, the exact number is not on record here.

The target in one data set is PDE4. Description: Measurement of PDE4 enzyme inhibiting action. It counts as biochemical, human. The settings on record: PDE4 enzyme solution from polymorphonuclear leukocytes of healthy volunteer; 0.2 μM [3H]cAMP, 30° C., 30 minutes; read-out: PDE4 inhibition IC50 value. How it is done:
Preparation of a PDE4 enzyme solution was carried out according to the method of Cooper et al. (Br. J. Pharmacol., 126, 1863 (1999)) by modifying a part thereof. Heparin-treated peripheral blood from healthy volunteer was stratified by a blood cell separating solution (Polymorphprep™, available from AXIS-SHIELD PoC AS CO.), and centrifugation was carried out at 20° C. with 1900 rpm for 27 minutes to obtain polymorphonuclear leukocytes. The polymorphonuclear leukocytes were washed with a Hanks' balanced salt solution, then, a mixed solution comprising 70% of 10 mM 3-morpholinopropane sulfonic acid buffer solution (pH 7.4) containing 1 mM EGTA, 1 mM magnesium acetate and 5 mM dithiothreitol and 30% of ethylene glycol was added thereto to dissolve the same under ice-cooling, and the obtained cell dissolved solution was used as a PDE4 enzyme solution.
Measurement of PDE4 activity was carried out according to the method of Owens, et al. (Biochem. J., 326, 53 (1997)) by modifying a part thereof. The PDE4 enzyme solution was incubated with a compound to be tested dissolved in dimethylsulfoxide in 80 mM Tris-HCl buffer solution (pH 7.4) containing 0.2 μM [^3H] cAMP, 0.1 mM cGMP, 20 mM MgCl2 and 12 mM 2-mercaptoethanol at 30° C. for 30 minutes. Trifluoroacetic acid (final concentration: 1%) was added to the mixture to stop the reaction, and the reaction mixture was added to neutral alumina column (BOND ELUT™, available from VARIAN INC.). After the column was washed with 100 mM Tris-HCl buffer solution (pH 8.0), [^3H] 5′-AMP was eluted with 2N sodium hydroxide solution, and radioactivity of the eluent was measured by a liquid scintillation analyzer.
A concentration of the compound to be tested which inhibits 50% of PDE4 activity was calculated from the relation between the concentration of the compound to be tested which had been added and PDE4 activity as an IC50 value.

In a further data set the test system is cynomulgus monkey. The data set can be described thus: Emetic action test in cynomulgus monkey. The settings on record: suspended in 0.5% aqueous methyl cellulose, administered nasally; emesis observed for 24 hours; 3 or 4 monkeys per dose.
Data set [1] relates to pulmonary neutrophil infiltration. The data set can be described thus: Pulmonary neutrophil infiltration-inhibiting activity in SD rats (LPS inhalation, MPO activity in BALF). The settings on record: @3 mg/Kg, orally 15 minutes before LPS inhalation; BAL 4 hours after LPS; MPO activity as index; inhibiting rate relative to control. It counts as in vivo. The method, then: Inhalation of lipopolysaccharide (hereinafter abbreviated to as LPS) was carried out by modifying the method of Moraes et al. (Br. J. Pharmacol., 123, 631 (1998)). SD rats (male, 5-weeks old, supplied by CHARLES RIVER LABORATORIES JAPAN, INC.) fasted 24 hours before administration of a compound were kept in a plastic cage, and inhalated LPS (L2880-500MG, available from SIGMA Inc.) (0.1 mg/ml) dissolved in physiological saline for 30 minutes. An ultrasonic nebulizer (NE-U12, manufactured by Omron Corporation) was used for inhalation.
A compound to be tested is dissolved (10 ml/Kg) in mixed solution of polyethylene glycol (hereinafter abbreviated to as PEG) and water, and orally administered 15 minutes before the inhalation of LPS. For the control group, 50% PEG solution was administered.
Bronchoalveolar lavage (hereinafter abbreviated to as BAL) was carried out as mentioned below 4 hours after the inhalation of LPS. […] 3.5 ml of physiological saline containing heparin (1 U/ml) was injected by using a disposable injection syringe (5 ml volume, manufactured by Terumo Corporation), and immediately recovered. This operation was repeated four times to obtain a bronchioalveolar lavage fluid (hereinafter abbreviated to as BALF). BALF was centrifugated (at 2500 rpm, 10 minutes, 4° C.), and 1 ml of 0.5% hexadecyltrimethylammonium bromide (030-02105, available from Wako Pure Chemical Industries, Ltd.) was added to the precipitated cells. Thereafter, a freeze-thaw operation (−80° C./37° C.) was repeated three times to destroy the cells.
As an index of a number of neutrophil, measurement of myeloperoxidase (hereinafter abbreviated to as MPO) activity was carried out as follows. Measurement of MPO activity was carried out by partially modifying the method of Krawisz et al. (GASTROENTEROLOGY, 1344 (1984)). To cell dissolved solution was added 50 mM phosphate buffer solution (pH 6.0) containing o-dianisidine hydrochloride (0.2 mg/ml) and 0.005% hydrogen peroxide, and change in absorbance at 450 nm was measured. As a MPO standard substance, MPO from human sputum (available from Elastin Products Company Inc.) was used. Measurement of absorbance was carried out by using a Microplate Reader (MTP-32, manufactured by Corona Electric Co., Ltd.).
An inhibiting rate of the compound to be tested relative to the control was calculated.

Experimental for cynomulgus monkey: The compound to be tested was suspended in 0.5% aqueous methyl cellulose solution (5 ml/Kg), and administered nasally.
With respect to each dose, each administered to 3 or 4 monkeys, and a dose in which emesis had not been admitted in all monkeys was made a maximum non-emesis dose.

Consider `CCc1c(-c2ccc(OC(F)F)c(OC3CC3)c2)[nH]c2cn[nH]c(=O)c12` [Example 5, 2-(3-Cyclopropoxy-4-difluoromethoxyphenyl)-3-ethyl-1,5-dihydropyrrolo[2,3-d]pyridazin-4-one], for which the melting point (in general, the temperature, or range, at which the solid turns liquid) lay in the range of 223 to 225 °C. Besides, the IC50 (commonly the concentration that gives 50% inhibition) at PDE4 is 3.4 nM. Moreover, the “Monkey Maximum non-emesis dose” value in the data set on cynomulgus monkey is over 30 mg/kg.

As for `CCOCc1c(-c2ccc(OC(F)F)c(OC3CC3)c2)[nH]c2cn[nH]c(=O)c12` [Example 12, 2-(3-Cyclopropoxy-4-difluoromethoxyphenyl)-3-ethoxymethyl-1,5-dihydropyrrolo[2,3-d]pyridazin-4-one], the melting point fell in the range of 141 to 143 °C. The IC50 on PDE4 amounted to 4.6 nM. The “Monkey Maximum non-emesis dose” value in the data set with cynomulgus monkey was found to be 3 mg/kg.

For the compound `O=c1[nH]ncc2[nH]c(-c3ccc(OC(F)F)c(OC4CC4)c3)c(CC3CC3)c12` [Example 15, 2-(3-Cyclopropoxy-4-difluoromethoxyphenyl)-3-cyclopropylmethyl-1,5-dihydropyrrolo[2,3-d]pyridazin-4-one], the melting point lay in the range of 204 to 206 °C. Also, in data set [1], the “Rat pulmonary neutrophil infiltration-inhibiting activity” value was determined as 73%.

`O=c1[nH]ncc2[nH]c(-c3ccc(OC(F)F)c(OC4CC4)c3)c(Cc3ccccc3F)c12` [Example 22, 2-(3-Cyclopropoxy-4-difluoromethoxyphenyl)-3-(2-fluorobenzyl)-1,5-dihydropyrrolo[2,3-d]pyridazin-4-one] gave a melting point of 202 to 204 °C. Moreover, in data set [1], the “Rat pulmonary neutrophil infiltration-inhibiting activity” value was 78%.

`CC1(C)C=Cc2c(-c3[nH]c4cn[nH]c(=O)c4c3Cl)ccc(OC(F)F)c2O1` [Example 52, 3-Chloro-2-(8-difluoromethoxy-2,2-dimethyl-2H-chromen-5-yl)-1,5-dihydropyrrolo[2,3-d]pyridazin-4-one] showed a melting point of 226 to 234 °C. Besides, at PDE4, the IC50 is 8 nM.

Compound `O=c1[nH]ncc2[nH]c(-c3ccc(OC(F)F)c4c3C=CC3(CCCC3)O4)c(Cl)c12` [Example 57, 3-Chloro-2-(8-difluoromethoxy-2H-chromen-2-spiro-1′-cyclopentan-5-yl)-1,5-dihydropyrrolo[2,3-d]pyridazin-4-one] displayed a melting point of over 300 °C. Also, the IC50 on PDE4 was 11 nM.

The compound `O=c1[nH]ncc2[nH]c(-c3ccc(OC(F)F)c4c3C=CC(C3CC3)O4)cc12` (stereo not shown) [Example 58, 2-(2-Cyclopropyl-8-difluoromethoxy-2H-chromen-5-yl)-1,5-dihydropyrrolo[2,3-d]pyridazin-4-one] had a melting point of 232 to 242 °C. On PDE4, the IC50 came out at 36 nM.

In the case of `CC(C)OCc1c(-c2ccc(OC(F)F)c(OC3CC3)c2)[nH]c2cn[nH]c(=O)c12` [Example 60, 2-(3-Cyclopropoxy-4-difluoromethoxyphenyl)-3-isopropoxymethyl-1,5-dihydropyrrolo[2,3-d]pyridazin-4-one], the melting point lay within 196 to 197 °C. The IC50 on PDE4 amounted to 3 nM.

For the compound `O=c1[nH]ncc2[nH]c(-c3ccc(OC(F)F)c(OC4CC4)c3)c(COCCF)c12` [Example 61, 2-(3-Cyclopropoxy-4-difluoromethoxyphenyl)-3-(2-fluoroethoxymethyl)-1,5-dihydropyrrolo[2,3-d]pyridazin-4-one], the “Rat pulmonary neutrophil infiltration-inhibiting activity” value in data set [1] was 59%.

Consider `CC(C)COCc1c(-c2ccc(OC(F)F)c(OC3CC3)c2)[nH]c2cn[nH]c(=O)c12` [Example 62, 2-(3-Cyclopropoxy-4-difluoromethoxyphenyl)-3-isobutoxymethyl-1,5-dihydropyrrolo[2,3-d]pyridazin-4-one], for which the melting point lay within 162 to 164 °C. At PDE4, the IC50 was determined as 0.41 nM. The “Monkey Maximum non-emesis dose” value with cynomulgus monkey was over 10 mg/kg.

`COCCc1c(-c2ccc(OC(F)F)c(OC3CC3)c2)[nH]c2cn[nH]c(=O)c12` [Example 66, 2-(3-Cyclopropoxy-4-difluoromethoxyphenyl)-3-(2-methoxyethyl)-1,5-dihydropyrrolo[2,3-d]pyridazin-4-one] came in with a melting point of 215 to 217 °C. For the same compound, in the data set on cynomulgus monkey, the “Monkey Maximum non-emesis dose” value is over 10 mg/kg. In data set [1], the “Rat pulmonary neutrophil infiltration-inhibiting activity” value was found to be 69%.

In the case of `CCOCCc1c(-c2ccc(OC(F)F)c(OC3CC3)c2)[nH]c2cn[nH]c(=O)c12` [Example 67, 2-(3-Cyclopropoxy-4-difluoromethoxyphenyl)-3-(2-ethoxyethyl)-1,5-dihydropyrrolo[2,3-d]pyridazin-4-one], the melting point is 201 to 203 °C. For the same compound, on PDE4, the IC50 was found to be 1.4 nM.

As to `CCCCCCc1c(-c2ccc(OC(F)F)c(OC3CC3)c2)[nH]c2cn[nH]c(=O)c12` [Example 69, 2-(3-Cyclopropoxy-4-difluoromethoxyphenyl)-3-hexyl-1,5-dihydropyrrolo[2,3-d]pyridazin-4-one], the melting point is 186 to 188 °C. In addition, the IC50 at PDE4 is 0.38 nM.

Regarding `CC#CCc1c(-c2ccc(OC(F)F)c(OC3CC3)c2)[nH]c2cn[nH]c(=O)c12` [Example 72, 3-(2-Butynyl)-2-(3-cyclopropoxy-4-difluoromethoxyphenyl)-1,5-dihydropyrrolo[2,3-d]pyridazin-4-one], the melting point was 231 to 236 °C. The “Monkey Maximum non-emesis dose” value with cynomulgus monkey was over 10 mg/kg. The “Rat pulmonary neutrophil infiltration-inhibiting activity” value in data set [1] is on record as 76%.

`CC(C)C#CCc1c(-c2ccc(OC(F)F)c(OC3CC3)c2)[nH]c2cn[nH]c(=O)c12` [Example 73, 2-(3-cyclopropoxy-4-difluoromethoxyphenyl)-3-(4-methyl-2-pentynyl)-1,5-dihydropyrrolo[2,3-d]pyridazin-4-one] showed a melting point of 139 to 143 °C. At PDE4, the IC50 was 0.23 nM.

Regarding `C=CC(O)c1c(-c2ccc(OC(F)F)c(OC3CC3)c2)[nH]c2cn[nH]c(=O)c12` (stereo not shown) [Example 75, 2-(3-Cyclopropoxy-4-difluoromethoxyphenyl)-3-(1-hydroxy-2-propenyl)-1,5-dihydropyrrolo[2,3-d]pyridazin-4-one], the melting point lay within 202 to 203 °C. Besides, the IC50 at PDE4 was determined as 1.5 nM.

Consider `O=C(Nc1c(Cl)cncc1Cl)c1ccc(OC(F)F)c(OCC2CC2)c1` [compound A, N-(3,5-dichloro-4-pyridyl)-3-cyclopropylmethoxy-4-difluoromethoxybenzamide, reference compound], for which the “Monkey Maximum non-emesis dose” value in the data set with cynomulgus monkey was determined as 0.1 mg/kg.
